Laboratory results: a melting point compilation (Tetko et al.; mined from patent text by program, amines drawn as free bases though some values may be those of a salt)

First: Fc1cc(Cl)ccc1-c1ncnc(C(F)F)c1Cl
Second: Nc1cnc(Oc2cnc3ccccc3c2)c(Cl)c1
The melting point of the first is lower: 76 to 77 °C for the first, 156 to 159 °C for the second.

First: O=C1NC(=O)C(Cc2ccc(Oc3ccc(Oc4ccc(CC5OC(=O)NC5=O)cc4)cc3)cc2)O1 (configuration not stated)
Second: CN(CCN1CCOCC1)Cc1ccc(COc2cccc3c2CN(C2CCC(=O)NC2=O)C3=O)cc1 (configuration not stated)
The melting point of the first is lower: 93 to 96 °C for the first, 193 to 195 °C for the second.

Going from CCNCCC(=O)Nc1ccc2c(c1)C(=O)c1cc(NC(=O)CCNCC)ccc1C2=O to NC(=O)c1ccc2c(c1)C(=O)c1ccccc1C2=O, the melting point rises from 181 °C to 299 °C.

First: CC(=O)NCc1ccc2c(c1)N(C1CCN(CCc3ccc(F)cc3)CC1)CC2(C)C
Second: COc1cc(C(C)=O)ccc1OCCCN1CCC(c2n[nH]c3ccccc23)CC1
The melting point of the first is lower: 131 to 133 °C for the first, 171 to 173 °C for the second.

Compared with Cn1cncc1C(O)(c1cccc(I)c1)c1ccc2c(c1)c(-c1cccc(Cl)c1)cc(=O)n2C (configuration not stated), COCn1ccnc1C(O)(c1ccccc1)c1ccc(Cl)cc1Cl (configuration not stated) is lower in melting point: 226 °C for the first, 161 to 162 °C for the second.

First: COc1ccc(Cc2nc3cc(Cl)cc(CCO)c3o2)cc1OC1CCCC1
Second: COC(=O)c1cccc(-c2c(C)cc(OC3CCS(=O)(=O)CC3)cc2C)c1
The melting point of the first is lower: 74 to 76 °C for the first, 180 °C for the second.

First: Cc1ccc(C(=O)c2c(Cl)cccc2Cl)cc1
Second: COc1ccc(C(=O)c2ccc(Cl)c(Cl)c2)c(Cl)c1Cl
The melting point of the first is lower: 109 to 112 °C for the first, 113 to 140 °C for the second.

First: CCN(CC)c1cccc(-c2ccnc3c(C(=O)c4cccs4)cnn23)c1
Second: CCN(CC)c1ccc2nc3c4ccccc4c(=Nc4cc(C)nc5ccccc45)cc-3oc2c1
The melting point of the first is lower: 102 to 104 °C for the first, 229 to 230 °C for the second.

First: Cc1cc(SC2=C(O)CC(CCc3ccsc3CO)(C(C)C)OC2=O)c(C(C)(C)C)cc1N (configuration not stated)
Second: Cc1cc(C)cc(COC(=O)[C@H](Cc2cccc3ccccc23)NC(=O)OC(C)(C)C)c1
The melting point of the first is higher: 107 to 115 °C for the first, 93 to 94 °C for the second.

COC(=O)C(=O)c1cc(O)c(O)c(C#N)c1 and COC(=O)c1cccc(C[C@H](N)C(=O)O)c1 cannot be ordered by melting point: 252 °C for the first, > 200 °C for the second.

Compared with CCCc1cc(OCC)c2c(c1OC)S(=O)(=O)N(CSc1nnnn1-c1ccccc1)C2=O, COc1ccccc1COc1cc2c(cc1OC)C(=O)N(Cc1ccccc1OC)CC2 is higher in melting point: 110 to 111 °C for the first, 133 to 134 °C for the second.

Compared with COC(=O)[C@H](CC(=O)c1ccc2oc3ccccc3c2c1)NC(=O)c1ccccc1, COC(=O)c1ccccc1NC(=O)CNc1ccccc1 is higher in melting point: 65 to 70 °C for the first, 140 to 142 °C for the second.

First: CC(=O)NCC1CC(c2cc(F)c(N3CCN(C(=O)CO)CC3)c(F)c2)=NO1 (single isomer, unassigned; (-))
Second: CCOC(=O)N1CCN(c2ccc(C3=NNC(=O)CC3C)cc2F)CC1 (configuration not stated)
The melting point of the first is higher: 220 to 221 °C for the first, 193 to 194 °C for the second.

Compared with CCCCCc1c(-c2ccc3cc(OCC#N)ccc3c2)n(Cc2ccccc2)c2ccccc12, COc1ccc(CN2C(=O)C3(COc4cc(O)c(C#N)cc43)c3ccccc32)cc1 (configuration not stated) is higher in melting point: 109 to 112 °C for the first, 112 to 114 °C for the second.

CCCCNC(P(=O)(O)O)P(=O)(O)O and CCCCNC(=O)c1ncc[nH]1 cannot be ordered by melting point: 188 to 189 °C for the first, 188 to 190 °C for the second.

First: COCCN(C)C(=O)NCCNCC(O)COc1ccc(OCCOCC(C)C)cc1 (configuration not stated)
Second: CCc1c(CC(=O)NCCCCCCNC(=O)Cc2ccc(OC)cc2)ccc(OC)c1OC
The melting point of the first is lower: 60 to 63 °C for the first, 123 to 125 °C for the second.

First: CN1CCN(c2cccc3c2C[C@H](NC(=O)c2ccc(OS(C)(=O)=O)cc2)CC3)CC1
Second: N#Cc1ccc(C(=O)N[C@H]2CC[C@H](CCN3CCC(c4cccc5c4CCO5)CC3)CC2)cc1
The melting point of the first is lower: 199 to 200 °C for the first, 230 °C for the second.

First: O=C(NCC12CC3CC(CC(C3)C1)C2)c1c(Cl)ccc2nc(N3CCC[C@H](NCCc4nn[nH]n4)C3)ccc12
Second: CCN(CC)CC1CCCCN1CCCNC(=O)N1c2ccccc2C(=O)Nc2cccnc21 (configuration not stated)
The melting point of the first is higher: 168 to 172 °C for the first, 160 to 161 °C for the second.

Compared with CCCCCCCCCCCCNC(=O)N1c2ccccc2C(C)CC1(C)C (configuration not stated), Cc1cc(N2C(=O)N(CCCCCCCCCSCCCC(F)(F)C(F)(F)F)C(C)(C)C2=O)ccc1NS(N)(=O)=O is higher in melting point: 48 to 50 °C for the first, 102 to 104 °C for the second.

First: CN(Cc1ccc(NC(=O)C2=Cc3cc(-c4ccc(O)cc4)ccc3S(=O)(=O)CC2)cc1)C1CCOCC1
Second: COc1ccc(C2=NN(CC(=O)Nc3ccc(C4=NNC(=O)CC4C)cc3)C(=O)C3CC=CCC23)cc1OC (configuration not stated)
The melting point of the first is higher: 232 to 234 °C for the first, 139 to 141 °C for the second.

First: Cc1c(Cc2ccc(Cl)cc2)cccc1[N+](=O)[O-]
Second: Cc1ccc(C#N)c(Nc2ccccc2[N+](=O)[O-])c1
The melting point of the first is lower: 84 to 85 °C for the first, 162 to 164 °C for the second.

First: N#Cc1c(N2CCc3ccccc3CC2)nc(CCO)[nH]c1=O
Second: O=c1cc(N2CCNCC2)oc2c1ccc1ccccc12
The melting point of the first is lower: 184 to 188 °C for the first, 208 to 209 °C for the second.

Compared with CC(C)(C)OC(=O)NC(C(=O)O)c1ccc(O)cc1 (configuration not stated), NC(=O)C(=O)NC(C(=O)O)c1ccco1 (configuration not stated) is higher in melting point: 112 to 114 °C for the first, 174 °C for the second.

Going from C[C@H](O)c1ccccc1S(=O)(=O)c1ccc(/C=C/c2ccc(F)cc2)cc1 to CNc1ccc(CN2CCN(C(c3ccccc3)c3ccccc3)CC2)cc1[N+](=O)[O-], the melting point rises from 75 °C to 121 °C.

First: Cc1cccc(Nc2cc(Nc3ccc(OCCCO)cc3)ncn2)c1
Second: C=CC(=O)Nc1ccc2c(Nc3cccc(Cl)c3)ncnc2c1
The melting point of the first is lower: 196 to 200 °C for the first, 296 to 298 °C for the second.

First: Cc1cc(C)cc(C(N)=O)c1
Second: Cc1cc(CO)cc(Cl)n1
The melting point of the first is higher: 148 to 149 °C for the first, 112 to 113 °C for the second.

Compared with CCOC(=O)C1(O)C(=O)N2CCOc3cc(Cl)cc1c32 (configuration not stated), O=C1C(=O)N2CCOc3c(Cl)c(Cl)cc1c32 is higher in melting point: 186 to 187 °C for the first, 237 to 238 °C for the second.

First: Nc1c(F)c(F)cc(C(=O)O)c1F
Second: O=C(O)C1=Cc2c(F)ccc(Br)c2OC1C(F)(F)F (configuration not stated)
The melting point of the first is lower: 133 to 136 °C for the first, 222 to 223 °C for the second.

Compared with CN(C)C(=O)N(O)Cc1cc2ccccc2s1, CCOC(=O)c1ccc2ccccc2c1 is lower in melting point: 145 to 147 °C for the first, 35 to 36.5 °C for the second.

Compared with Cc1nnc(-c2cn3c4c(cccc24)CCC3)o1, ClC(Cl)(Cl)c1nnc(-c2cccc3ccccc23)o1 is higher in melting point: 70 to 72 °C for the first, 90 to 91.5 °C for the second.

Compared with COC1(c2ccc3ccccc3c2)OOC12C1CC3CC(C1)CC2C3 (configuration not stated), O[C@@H]1CN(Cc2ccccc2)C[C@H]1Oc1ccccc1 (relative stereo) is lower in melting point: 116 °C for the first, 88.5 to 90 °C for the second.

First: CN1CCN(Cc2nnc3n2CC(=O)N(C)c2ccc(Cl)cc2-3)CC1
Second: CCc1csc2ccc3[nH]c4c(c3c12)CN(C)CC4
The melting point of the first is higher: 228 to 230 °C for the first, 181 to 182 °C for the second.

Compared with O=C(C(=O)c1ccc(Cl)cc1Cl)c1ccncc1, O=C(O)c1cc(Cl)c(OCc2ccccc2)c(Cl)c1 is higher in melting point: 85 °C for the first, 211 to 213 °C for the second.

First: CCOC(=O)C1=C(C)Nc2nc[nH]c(=O)c2C1c1ccccc1 (configuration not stated)
Second: CCOC(=O)C1=C(C)NC(N=CN(C)C)=C(C(=O)OCC)C1c1cccc(Cl)c1 (configuration not stated)
The melting point of the first is higher: 303 to 305 °C for the first, 150 °C for the second.

First: COC(Oc1cc(Cl)c(Cl)c(Cl)c1)C(=O)O (configuration not stated)
Second: CSC(CC(=O)c1cc(Cl)c(C)c(Cl)c1)C(=O)O (configuration not stated)
The melting point of the first is lower: 101 to 104 °C for the first, 158 to 160 °C for the second.

First: CC1(C)CCC(C)(C)c2cc(CC#Cc3ccc(C(=O)N4CCOCC4)cc3)ccc21
Second: CC(ON1C(C)(C)CC2(CC1(C)C)OCC(C)(C)CO2)c1ccc(C(=O)c2ccccc2)cc1 (configuration not stated)
The melting point of the first is lower: 98 to 99 °C for the first, 104 to 117 °C for the second.

First: O=C(CC(=O)C1CC1)c1cccnc1
Second: NC(=O)N(O)CC#Cc1cccc(Oc2cccnc2)c1
The melting point of the first is lower: 69 to 70 °C for the first, 107 to 110 °C for the second.

First: COc1cc(OC)cc(C(=O)Nc2ccc3ccc(Cl)nc3n2)c1
Second: COc1ccc(C(=O)Nc2nc(C(Cl)(Cl)Cl)ns2)cc1
The melting point of the first is higher: 235 °C for the first, 172 °C for the second.

Compared with OCCn1cnc2c(Cl)nc3ccccc3c21, OC1CCN(c2nc(-c3ccccc3)nc3ccccc23)CC1 is lower in melting point: 185 to 187 °C for the first, 165 to 167 °C for the second.

First: O=C(OCC(O)CO)c1cc(F)ccc1Nc1ccnc2cc(Cl)ccc12 (configuration not stated)
Second: CCOC(=O)C1=C(C)N(C(C)=O)C(c2csc(C)n2)=NC1c1cccc(F)c1 (configuration not stated)
The melting point of the first is higher: 168 °C for the first, 127 to 130 °C for the second.

First: COc1ccc(CN2CCC(c3cn(Cc4ccoc4)c4ccccc34)CC2)cc1C(=O)O
Second: O=[N+]([O-])c1cn2c(n1)O[C@@H](COc1ccc(N3CCC(OCc4ccc(OC(F)(F)F)cc4)CC3)cc1)C2
The melting point of the first is higher: 253 to 255 °C for the first, 188 to 189 °C for the second.

First: CCCN(CC(=O)Nc1c(SC)nc(C)nc1N(CC)CC)c1ccccc1
Second: COC(=O)N(C)c1cn2cc(Sc3ccccc3)ccc2n1
The melting point of the first is higher: 173 to 175 °C for the first, 147 to 149 °C for the second.

Compared with Cc1c(CBr)oc2ccc(Cl)cc12, CCC(=O)c1cc2c(Cl)cccc2s1 is higher in melting point: 81 to 82 °C for the first, 96 to 98 °C for the second.

First: NS(=O)(=O)c1cc2c(cc1Cl)NCN(CCO)S2(=O)=O
Second: CCS(=O)(=O)NC(=O)c1cccc(N)c1
The melting point of the first is higher: 199 to 203 °C for the first, 129 to 132 °C for the second.

First: C[C@H](C(=O)O)n1ccn(-c2ccc(OCC(F)(F)C(F)F)cc2)c1=O
Second: FC(F)(F)C1(c2ccccc2)CCNCC1
The melting point of the first is higher: 149 to 151 °C for the first, 87.6 °C for the second.

Compared with COC1C(O)C(CO)OC1n1cnc(C(N)=O)c1N (configuration not stated), CC(=O)C(=Cc1cccc([N+](=O)[O-])c1)C(=O)OCCBr is lower in melting point: 114 to 117 °C for the first, 94.5 to 95.5 °C for the second.

Compared with COc1ccccc1Cc1ccc(Cl)nn1, CN1C(=O)N2C(=NC1(C)C)N(C(=O)Nc1ccc(Cl)c(Cl)c1)c1ccccc12 is higher in melting point: 63 °C for the first, 198 to 200 °C for the second.

Compared with Nc1n[nH]c2c(F)cccc12, C#CCN(C(=O)c1cn(C)cc1C(F)(F)F)c1cccc2c1C(C)CC2(C)C (configuration not stated) is lower in melting point: 170 °C for the first, 142 to 144 °C for the second.

Compared with CCCC(C)(c1ccc(O)cc1)c1ccc(O)cc1, CCCCN(CCCC)CCCOc1ccc(C(=O)c2c(C)oc3c(NS(C)(=O)=O)cccc23)cc1 is lower in melting point: 151 to 152 °C for the first, 135 °C for the second.

First: C#CCN(c1ccc(C(=O)NCc2cccc(C#N)c2)cc1)C1CCc2cc3nc(C)[nH]c(=O)c3cc21 (racemic)
Second: O=c1ccc(Cl)cn1[C@@H]1c2cc([N+](=O)[O-])ccc2OCC[C@H]1O (relative stereo)
The melting point of the first is higher: 260 °C for the first, 219 to 222 °C for the second.

First: O=[N+]([O-])c1sc(I)nc1I
Second: CC(C)c1nc(CO)n(Cc2cccnc2)c1Sc1cc(Cl)cc(Cl)c1
The melting point of the first is lower: 135 °C for the first, 136 to 139 °C for the second.
